Assay results: patent US20260022142A1, “MACROCYCLIC IMMUNOMODULATORS” (Bristol-Myers Squibb Company, priority 2022, published 2026)
Like-named read-outs stand apart in the source and are kept apart here. Bridge positions count the residues as written; N and C are the ends. Square brackets hold non-standard residues; d marks the D form. Peptide text beside a SMILES is read from it. * marks the point of attachment. ξ: configuration not given here. Phe(4-COOH) = N[C@@H](Cc1ccc(C(=O)O)cc1)C(=O)O; Bip = N[C@@H](Cc1ccc(-c2ccccc2)cc1)C(=O)O; Phe(3-Me) = Cc1cccc(C[C@H](N)C(=O)O)c1; 4Pal = N[C@@H](Cc1ccncc1)C(=O)O; Cha = N[C@@H](CC1CCCCC1)C(=O)O; Cit = NC(=O)NCCC[C@H](N)C(=O)O; 4Abz = Nc1ccc(C(=O)O)cc1; Carboxymethyl = O=C(O)C*; Orn = NCCC[C@H](N)C(=O)O; Aun = NCCCCCCCCCCC(=O)O; Dab = NCC[C@H](N)C(=O)O; Dap = NC[C@H](N)C(=O)O; AEEA = NCCOCCOCC(=O)O; ξV = CC(C)C(N)C(=O)O

Molecular target: T1, PD-1/PD-L1 interaction (PE-labeled human PD-L1-Ig binding to Jurkat cell line over-expressing human PD-1) (Homo sapiens, UniProt Q15116)
T1 construct: expressed in transfected cells; host or cells: Jurkat
Assay: Jurkat-PD-1 Cell Binding High-Content Screening Assay (CBA)
Type: cell-based
Conditions: PE-labeled PD-L1-Ig 20 nM final
Method in brief: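 Jurkat cells over-expressing human PD-1 (8×10^3 per well, DMEM/10% FCS) preincubated with compound 2 h at 37° C, then PE-labeled human PD-L1-Ig (20 nM final) added for 1 h. Cells fixed with paraformaldehyde, Hoechst-stained, and bound fluorescence quantified by high-content imaging.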

[1] = Jurkat cell line over-expressing human PD-1, read-out: Jurkat hPD1-PDL1 IC50

T1 sequence (Q15116 25-288): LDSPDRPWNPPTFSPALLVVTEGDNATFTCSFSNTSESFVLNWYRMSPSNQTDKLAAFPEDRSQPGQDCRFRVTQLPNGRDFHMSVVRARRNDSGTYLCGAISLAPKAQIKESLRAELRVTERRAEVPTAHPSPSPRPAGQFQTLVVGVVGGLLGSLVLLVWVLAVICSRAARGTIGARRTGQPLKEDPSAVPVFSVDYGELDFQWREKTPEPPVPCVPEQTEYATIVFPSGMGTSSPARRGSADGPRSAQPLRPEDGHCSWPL

Compound | IC50 [1] [nM] | IC50 (Jurkat hPD1-PDL1 IC50, Jurkat cell line over-expressing human PD-1) [nM]
CC(C)C[C@@H]1NC(=O)[C@H](Cc2c[nH]c3ccccc23)NC(=O)[C@H](CC(=O)O)NC(=O)[C@H](Cc2ccncc2)NC(=O)[C@H](Cc2ccc(OCC(=O)O)cc2)NC(=O)CSC[C@@H](C(=O)Nc2ccc(C(=O)NCCCCCCCCCCC(=O)O)cc2)NC(=O)[C@H](CCCNC(=N)N)NC(=O)[C@H](C(C)C)NC(=O)[C@H](CC2CCCCC2)NC(=O)[C@H](CCN)NC(=O)[C@@H](CC(C)C)NC(=O)[C@H](CCCN)NC(=O)[C@H](C(C)C)NC(=O)[C@H](Cc2ccc(-c3ccccc3)cc2)NC1=O [Compound 1230] ({CH2CO}-Y(Carboxymethyl)[4Pal]DWL[Bip]V[Orn][dL][Dab][Cha]VRC[4Abz][Aun]-OH; thioether N-14) | – | 537
CC(C)C[C@@H]1NC(=O)[C@H](Cc2c[nH]c3ccccc23)NC(=O)[C@H](CC(=O)O)NC(=O)[C@H](Cc2ccc(C(=O)O)cc2)NC(=O)[C@H](Cc2ccc(OCC(=O)O)cc2)NC(=O)CSC[C@@H](C(=O)N[C@@H](CN)C(=O)NCCCCCCCCCCC(=O)O)NC(=O)[C@H](CCCNC(N)=O)NC(=O)[C@H](C(C)C)NC(=O)[C@H](CC2CCCCC2)NC(=O)[C@H](CCN)NC(=O)[C@@H](CC(C)C)NC(=O)[C@H](CCCN)NC(=O)[C@H](Cc2ccc(O)cc2)NC(=O)[C@H](Cc2ccc(-c3ccccc3)cc2)NC1=O [Compound 1233] ({CH2CO}-Y(Carboxymethyl)[Phe(4-COOH)]DWL[Bip]Y[Orn][dL][Dab][Cha]V[Cit]C[Dap][Aun]-OH; thioether N-14) | 22.1 | –
CC(C)C[C@@H]1NC(=O)[C@H](Cc2c[nH]c3ccccc23)NC(=O)[C@H](CC(=O)O)NC(=O)[C@H](Cc2ccc(C(=O)O)cc2)NC(=O)[C@H](Cc2ccc(OCC(=O)O)cc2)NC(=O)CSC[C@@H](C(=O)N[C@@H](CCCN)C(=O)NCCCCCCCCCCC(=O)O)NC(=O)[C@H](CCCNC(N)=O)NC(=O)[C@H](C(C)C)NC(=O)[C@H](CC2CCCCC2)NC(=O)[C@H](CCN)NC(=O)[C@@H](CC(C)C)NC(=O)[C@H](CCCN)NC(=O)[C@H](Cc2ccc(O)cc2)NC(=O)[C@H](Cc2ccc(-c3ccccc3)cc2)NC1=O [Compound 1235] ({CH2CO}-Y(Carboxymethyl)[Phe(4-COOH)]DWL[Bip]Y[Orn][dL][Dab][Cha]V[Cit]C[Orn][Aun]-OH; thioether N-14) | 32.1 | –
CC(C)C[C@@H]1NC(=O)[C@H](Cc2c[nH]c3ccccc23)NC(=O)[C@H](CC(=O)O)NC(=O)[C@H](Cc2ccc(C(=O)O)cc2)NC(=O)[C@H](Cc2ccc(OCC(=O)O)cc2)NC(=O)CSC[C@@H](C(=O)N[C@@H](CCCCN)C(=O)NCCCCCCCCCCC(=O)O)NC(=O)[C@H](CCCNC(N)=O)NC(=O)[C@H](C(C)C)NC(=O)[C@H](CC2CCCCC2)NC(=O)[C@H](CCN)NC(=O)[C@@H](CC(C)C)NC(=O)[C@H](CCCN)NC(=O)[C@H](Cc2ccc(O)cc2)NC(=O)[C@H](Cc2ccc(-c3ccccc3)cc2)NC1=O [Compound 1236] ({CH2CO}-Y(Carboxymethyl)[Phe(4-COOH)]DWL[Bip]Y[Orn][dL][Dab][Cha]V[Cit]CK[Aun]-OH; thioether N-14) | 35.7 | –
CC(C)C[C@@H]1NC(=O)[C@H](Cc2c[nH]c3ccccc23)NC(=O)[C@H](CC(=O)O)NC(=O)[C@H](Cc2ccc(C(=O)O)cc2)NC(=O)[C@H](Cc2ccc(OCC(=O)O)cc2)NC(=O)CSC[C@@H](C(=O)N[C@@H](CCCNC(=N)N)C(=O)NCCCCCCCCCCC(=O)O)NC(=O)[C@H](CCCNC(N)=O)NC(=O)[C@H](C(C)C)NC(=O)[C@H](CC2CCCCC2)NC(=O)[C@H](CCN)NC(=O)[C@@H](CC(C)C)NC(=O)[C@H](CCCN)NC(=O)[C@H](Cc2ccc(O)cc2)NC(=O)[C@H](Cc2ccc(-c3ccccc3)cc2)NC1=O [Compound 1237] ({CH2CO}-Y(Carboxymethyl)[Phe(4-COOH)]DWL[Bip]Y[Orn][dL][Dab][Cha]V[Cit]CR[Aun]-OH; thioether N-14) | 70.6 | –
Cc1cccc(C[C@@H]2NC(=O)[C@H](CC(=O)O)NC(=O)[C@H](Cc3ccc(OCC(=O)O)cc3)NC(=O)[C@H](CN)NC(=O)CSC[C@@H](C(=O)N[C@@H](CCN)C(=O)NCCCCCCCCCCC(=O)O)NC(=O)[C@H](CCC(N)=O)NC(=O)[C@H](C(C)C)NC(=O)[C@H](CC3CCCCC3)NC(=O)[C@H](CCN)NC(=O)[C@@H](CC(C)C)NC(=O)[C@H](CCCN)NC(=O)[C@H](CCCNC(N)=O)NC(=O)[C@H](Cc3ccc(-c4ccccc4)cc3)NC(=O)[C@H](C(C)C)NC2=O)c1 [Compound 1244] ({CH2CO}-[Dap]Y(Carboxymethyl)D[Phe(3-Me)]V[Bip][Cit][Orn][dL][Dab][Cha]VQC[Dab][Aun]-OH; thioether N-14) | 16.2 | –

Continued, in another order:

IC50 [1] [nM] | Compound | IC50 (Jurkat hPD1-PDL1 IC50, Jurkat cell line over-expressing human PD-1) [nM]
39.8 | CC(C)C[C@@H]1NC(=O)[C@H](Cc2c[nH]c3ccccc23)NC(=O)[C@H](CC(=O)O)NC(=O)[C@H](Cc2ccc(C(=O)O)cc2)NC(=O)[C@H](Cc2ccc(OCC(=O)O)cc2)NC(=O)CSC[C@@H](C(=O)N[C@@H](CCN)C(=O)NCCCCCCCCCCC(=O)O)NC(=O)[C@H](CCCNC(N)=O)NC(=O)[C@H](C(C)C)NC(=O)[C@H](CC2CCCCC2)NC(=O)[C@H](CCN)NC(=O)[C@@H](CC(C)C)NC(=O)[C@H](CCCN)NC(=O)[C@H](Cc2ccc(O)cc2)NC(=O)[C@H](Cc2ccc(-c3ccccc3)cc2)NC1=O [Compound 1234] ({CH2CO}-Y(Carboxymethyl)[Phe(4-COOH)]DWL[Bip]Y[Orn][dL][Dab][Cha]V[Cit]C[Dab][Aun]-OH; thioether N-14) | –
39.3 | CC(C)C[C@@H]1NC(=O)[C@H](Cc2c[nH]c3ccccc23)NC(=O)[C@H](CC(=O)O)NC(=O)[C@H](Cc2ccc(C(=O)O)cc2)NC(=O)[C@H](Cc2ccc(OCC(=O)O)cc2)NC(=O)CSC[C@@H](C(=O)NCCOCCOCC(=O)NCCCCCCCCCCC(=O)O)NC(=O)[C@H](CN)NC(=O)[C@H](C(C)C)NC(=O)[C@H](CC2CCCCC2)NC(=O)[C@H](CCN)NC(=O)[C@@H](CC(C)C)NC(=O)[C@H](CCCN)NC(=O)[C@H](Cc2ccc(O)cc2)NC(=O)[C@H](Cc2ccc(-c3ccccc3)cc2)NC1=O [Compound 1238] ({CH2CO}-Y(Carboxymethyl)[Phe(4-COOH)]DWL[Bip]Y[Orn][dL][Dab][Cha]V[Dap]C[AEEA][Aun]-OH; thioether N-14) | –
30.2 | CC(C)C[C@@H]1NC(=O)[C@H](Cc2c[nH]c3ccccc23)NC(=O)[C@H](CC(=O)O)NC(=O)[C@H](Cc2ccc(C(=O)O)cc2)NC(=O)[C@H](Cc2ccc(OCC(=O)O)cc2)NC(=O)CSC[C@@H](C(=O)NCCOCCOCC(=O)NCCCCCCCCCCC(=O)O)NC(=O)[C@H](CCN)NC(=O)[C@H](C(C)C)NC(=O)[C@H](CC2CCCCC2)NC(=O)[C@H](CCN)NC(=O)[C@@H](CC(C)C)NC(=O)[C@H](CCCN)NC(=O)[C@H](Cc2ccc(O)cc2)NC(=O)[C@H](Cc2ccc(-c3ccccc3)cc2)NC1=O [Compound 1239] ({CH2CO}-Y(Carboxymethyl)[Phe(4-COOH)]DWL[Bip]Y[Orn][dL][Dab][Cha]V[Dab]C[AEEA][Aun]-OH; thioether N-14) | –
20.6 | CC(C)C[C@@H]1NC(=O)[C@H](Cc2c[nH]c3ccccc23)NC(=O)[C@H](CC(=O)O)NC(=O)[C@H](Cc2ccc(C(=O)O)cc2)NC(=O)[C@H](Cc2ccc(OCC(=O)O)cc2)NC(=O)CSC[C@@H](C(=O)NCCOCCOCC(=O)NCCCCCCCCCCC(=O)O)NC(=O)[C@H](CCCN)NC(=O)[C@H](C(C)C)NC(=O)[C@H](CC2CCCCC2)NC(=O)[C@H](CCN)NC(=O)[C@@H](CC(C)C)NC(=O)[C@H](CCCN)NC(=O)[C@H](Cc2ccc(O)cc2)NC(=O)[C@H](Cc2ccc(-c3ccccc3)cc2)NC1=O [Compound 1240] ({CH2CO}-Y(Carboxymethyl)[Phe(4-COOH)]DWL[Bip]Y[Orn][dL][Dab][Cha]V[Orn]C[AEEA][Aun]-OH; thioether N-14) | –
18.4 | CC(C)C[C@@H]1NC(=O)[C@H](Cc2c[nH]c3ccccc23)NC(=O)[C@H](CC(=O)O)NC(=O)[C@H](Cc2ccc(C(=O)O)cc2)NC(=O)[C@H](Cc2ccc(OCC(=O)O)cc2)NC(=O)CSC[C@@H](C(=O)NCCOCCOCC(=O)NCCCCCCCCCCC(=O)O)NC(=O)[C@H](CCCCN)NC(=O)[C@H](C(C)C)NC(=O)[C@H](CC2CCCCC2)NC(=O)[C@H](CCN)NC(=O)[C@@H](CC(C)C)NC(=O)[C@H](CCCN)NC(=O)[C@H](Cc2ccc(O)cc2)NC(=O)[C@H](Cc2ccc(-c3ccccc3)cc2)NC1=O [Compound 1241] ({CH2CO}-Y(Carboxymethyl)[Phe(4-COOH)]DWL[Bip]Y[Orn][dL][Dab][Cha]VKC[AEEA][Aun]-OH; thioether N-14) | –
33.3 | CC(C)C[C@@H]1NC(=O)[C@H](Cc2c[nH]c3ccccc23)NC(=O)[C@H](CC(=O)O)NC(=O)[C@H](Cc2ccc(C(=O)O)cc2)NC(=O)[C@H](Cc2ccc(OCC(=O)O)cc2)NC(=O)CSC[C@@H](C(=O)NCCOCCOCC(=O)NCCCCCCCCCCC(=O)O)NC(=O)[C@H](CCCNC(=N)N)NC(=O)[C@H](C(C)C)NC(=O)[C@H](CC2CCCCC2)NC(=O)[C@H](CCN)NC(=O)[C@@H](CC(C)C)NC(=O)[C@H](CCCN)NC(=O)[C@H](Cc2ccc(O)cc2)NC(=O)[C@H](Cc2ccc(-c3ccccc3)cc2)NC1=O [Compound 1242] ({CH2CO}-Y(Carboxymethyl)[Phe(4-COOH)]DWL[Bip]Y[Orn][dL][Dab][Cha]VRC[AEEA][Aun]-OH; thioether N-14) | –
11.7 | CC(C)C[C@H]1NC(=O)[C@H](CCCN)NC(=O)[C@H](Cc2ccc(O)cc2)NC(=O)[C@H](Cc2ccc(-c3ccccc3)cc2)NC(=O)[C@H](C(C)C)NC(=O)[C@H](Cc2c[nH]c3ccccc23)NC(=O)[C@H](CC(=O)O)NC(=O)[C@H](Cc2ccc(C(=O)O)cc2)NC(=O)[C@H](Cc2ccc(OCC(=O)O)cc2)NC(=O)CSC[C@@H](C(=O)NCCOCCOCC(=O)NCCCCCCCCCCC(=O)O)NC(=O)[C@H](CCCNC(N)=O)NC(=O)C(C(C)C)NC(=O)[C@H](CC2CCCCC2)NC(=O)[C@H](CCN)NC1=O (stereo partly drawn) [Compound 1243] ({CH2CO}-Y(Carboxymethyl)[Phe(4-COOH)]DWV[Bip]Y[Orn][dL][Dab][Cha][ξV][Cit]C[AEEA][Aun]-OH; thioether N-14) | –
